Test results from the OligoGym collection.
After the bases stand the sugars from the 5' end (letter, count) and the backbone: PS all phosphorothioate, else s phosphorothioate and o phosphodiester by linkage. Methylation of C is not given here. e = 2'-O-(2-methoxyethyl) (MOE); k = constrained ethyl (cEt); d = 2'-deoxy (DNA); m = 2'-O-methyl

Biological target: HSD17B13
Details: ASO, HepaRG

GTATAGTATTCTTCAC (sugars k3 d10 k3, PS)
target mRNA inhibition (0.02 µM): 15%
target mRNA inhibition (0.078 µM): 4%
target mRNA inhibition (0.313 µM): 29%
target mRNA inhibition (1 µM): 81%
target mRNA inhibition (1.25 µM): 61%
target mRNA inhibition (5 µM): 86%

ACACTAATATTGAGGC (sugars k3 d9 k3 e1, PS)
target mRNA inhibition (1 µM): 68%

TAGCTATTGTCTTTGA (sugars k3 d10 k3, PS)
target mRNA inhibition (1 µM): 63%

CTGCATTAATGCCACC (sugars k3 d9 k3 e1, PS)
target mRNA inhibition (1 µM): 40%

AGAGGCTAGGGAAATC (sugars k3 d10 k3, PS)
target mRNA inhibition (1 µM): 63%

TATCAGACTTCTTACG (sugars kkdddddddddkekek, PS)
target mRNA inhibition (1 µM): 32%

TTGAGATAAAGCTGCC (sugars k3 d1 m1 d8 k3, PS)
target mRNA inhibition (1 µM): 51%

TTAGAGTGAATCATTC (sugars k3 d10 k3, PS)
target mRNA inhibition (1 µM): 69%

ACATAACTTCATAGTG (sugars k3 d10 k3, PS)
target mRNA inhibition (1 µM): 27%

CATCTTAAGATACCCA (sugars k3 d9 k3 e1, PS)
target mRNA inhibition (0.02 µM): 0%
target mRNA inhibition (0.078 µM): 23%
target mRNA inhibition (0.313 µM): 38%
target mRNA inhibition (1 µM): 76%
target mRNA inhibition (1.25 µM): 64%
target mRNA inhibition (5 µM): 79%

TCTCUTAGCTGTGCAC (sugars k3 d1 m1 d8 k3, PS)
target mRNA inhibition (1 µM): 49%

AAATCTTGTGTAACTG (sugars k3 d10 k3, PS)
target mRNA inhibition (1 µM): 41%

CATACCACATACCCAT (sugars k3 d10 k3, PS)
target mRNA inhibition (1 µM): 0%

TATTGGTAAGTATTCC (sugars k3 d10 k3, PS)
target mRNA inhibition (1 µM): 67%

TAAGCTGAGAGTTCTA (sugars kkdddddddddkekek, PS)
target mRNA inhibition (1 µM): 29%

TCATAAACATAGGCTT (sugars k3 d10 k3, PS)
target mRNA inhibition (1 µM): 58%

ATAGTTATCTTCTCAC (sugars k3 d10 k3, PS)
target mRNA inhibition (1 µM): 48%

AGTGCTAAGTAGTAAT (sugars k3 d10 k3, PS)
target mRNA inhibition (1 µM): 71%

CTTTTAGGGAGGTAGC (sugars k3 d10 k3, PS)
target mRNA inhibition (1 µM): 62%

ATGTTCATGGCTTTGC (sugars k3 d10 k3, PS)
target mRNA inhibition (1 µM): 73%

AGCATATTCATTTGGC (sugars k3 d10 k3, PS)
target mRNA inhibition (1 µM): 61%

TGCTGCTAGTGCCAAA (sugars k3 d9 k3 e1, PS)
target mRNA inhibition (1 µM): 56%

ATTCTACACTAATATT (sugars k3 d10 k3, PS)
target mRNA inhibition (1 µM): 0%

TGCCAAGCTTTGTGTC (sugars k3 d10 k3, PS)
target mRNA inhibition (1 µM): 38%

CTTAAACCTTCCCTGT (sugars k3 d1 m1 d8 k3, PS)
target mRNA inhibition (1 µM): 24%

TGTCCAGGTTGAGATA (sugars k3 d9 k3 e1, PS)
target mRNA inhibition (1 µM): 45%

ACTAATGAATCATGAT (sugars k3 d10 k3, PS)
target mRNA inhibition (1 µM): 39%

CACCGTTTTGGGCTAA (sugars k3 d10 k3, PS)
target mRNA inhibition (0.02 µM): 13%
target mRNA inhibition (0.078 µM): 23%
target mRNA inhibition (0.313 µM): 53%
target mRNA inhibition (1 µM): 85%
target mRNA inhibition (1.25 µM): 83%
target mRNA inhibition (5 µM): 94%

CTCTAAGTGTAAGAGA (sugars k3 d10 k3, PS)
target mRNA inhibition (1 µM): 28%

TATAGACTGGGTAGGA (sugars k3 d9 k3 e1, PS)
target mRNA inhibition (1 µM): 55%

TCCAGGTTGAGATAAA (sugars k3 d10 k3, PS)
target mRNA inhibition (1 µM): 70%

CTACATGGATCCAACA (sugars k3 d10 k3, PS)
target mRNA inhibition (1 µM): 5%

GAGTGCATCTTAAGAT (sugars k3 d1 m1 d8 k3, PS)
target mRNA inhibition (1 µM): 7%

GAACATACATTGTTGC (sugars k3 d10 k3, PS)
target mRNA inhibition (1 µM): 58%

TACTATTCTCCAACTC (sugars k3 d10 k3, PS)
target mRNA inhibition (1 µM): 47%

CATTAGCAAGCTAAGA (sugars k3 d10 k3, PS)
target mRNA inhibition (1 µM): 0%

GGAAUGCTACTTGAAC (sugars k3 d1 m1 d8 k3, PS)
target mRNA inhibition (1 µM): 62%

TCCTTGTGTAGTCCTA (sugars k3 d10 k3, PS)
target mRNA inhibition (1 µM): 61%

AAGGAGTAGTGGAGCC (sugars k3 d10 k3, PS)
target mRNA inhibition (1 µM): 38%

AATAGAGTCGGTCACC (sugars k3 d9 k3 e1, PS)
target mRNA inhibition (1 µM): 58%

ATAGTAATCACAAGTA (sugars k3 d10 k3, PS)
target mRNA inhibition (1 µM): 56%

AAGATACCCAGGTTGC (sugars k3 d9 k3 e1, PS)
target mRNA inhibition (1 µM): 69%

AACCTATGTGTGCACC (sugars k3 d10 k3, PS)
target mRNA inhibition (1 µM): 73%

TGTAATAGCCAGTACA (sugars k3 d9 k3 e1, PS)
target mRNA inhibition (1 µM): 34%

GAGTTATCTGGTTTGC (sugars k3 d10 k3, PS)
target mRNA inhibition (0.02 µM): 0%
target mRNA inhibition (0.078 µM): 0%
target mRNA inhibition (0.313 µM): 27%
target mRNA inhibition (1 µM): 84%
target mRNA inhibition (1.25 µM): 68%
target mRNA inhibition (5 µM): 91%

TGCACCGTTTTGGGCT (sugars k3 d9 k3 e1, PS)
target mRNA inhibition (1 µM): 43%

AAATTTGCTGGAACTG (sugars k3 d10 k3, PS)
target mRNA inhibition (1 µM): 15%

CTAAATTACTCCGTTC (sugars k3 d10 k3, PS)
target mRNA inhibition (1 µM): 20%
